# US8110605B2, “Compound for inactivating viruses and bacteria and method of making same” (priority 2009, dated 2012)
# Read-outs that look alike come from different tables or passages of the source.
# Key:
# [1] = test system: Influenza virus H1N1 subtype (A/WSN/33); type: cell-based
# [2] = test system: H5N1 avian influenza virus (TW1209/03(H5N1)AIV); type: cell-based
# [3] = test system: H5N1 avian influenza virus (TW1209/03(H5N1)AIV); type: cell-based; remark: listed apart in the source
# [4] = test system: H5N2 avian influenza virus (TW1209/04(H5N2)AIV); type: cell-based
# [5] = test system: H5N2 avian influenza virus (TW1209/04(H5N2)AIV); type: cell-based; remark: listed apart in the source
# [6] = test system: avian influenza virus (AIV) subtype H5N2 (TW1209/04(H5N2)AIV) virions
# [7] = test system: Enterovirus type 71 (EV-71) virions; assay: AFM of Enterovirus type 71 virions treated with the compound; conditions: for maximum height of virus particles (AFM cursor profile): 5-10 minutes, native virion 75.23 nm; for calculated RMS height of treated particles: over 60 virus particles
# [8] = test system: Staphylococcus aureus strain (ATCC-25923); assay: Proliferation suppression of Staphylococcus aureus, MIC by broth dilution; type: cell-based; set-up: key to MIC of S. aureus: +: Proliferation of S. aureus,; −: Antibacterial effect of S. aureus; conditions: 10^4 CFU/mL
# [9] = test system: MDCK cells
# [10] = test system: MDCX cells
# [11] = test system: MDCK cells; remark: listed apart in the source
# [12] = test system: MDCK cells; remark: listed apart in the source
smiles,measurement,setting,value
O=C(O)C(CCCCCCCCCCS)C(=O)O [2-(10-mercaptodecyl)-propanedioic acid],concentration protecting cells against infection by influenza virus H1N1 subtype (as low as),[1],30 ppm
same,"CPE, H1N1 influenza virus treated with compound",[1]; 3 ppm,+
same,"CPE, H1N1 influenza virus treated with compound",[1]; 30 ppm,−
same,"CPE, H1N1 influenza virus treated with compound",[1]; 100 ppm,−
same,"CPE, H1N1 influenza virus treated with compound",[1]; 300 ppm,−
same,"CPE, H1N1 influenza virus treated with compound","[1]; 1,000 ppm",CTX
same,"CPE, H1N1 influenza virus treated with compound","[1]; 3,000 ppm",CTX
same,concentration protecting cells against H5N1 influenza virus infection,[2],"above 1,000 ppm"
same,"CPE, H5N1 avian influenza virus treated with compound",[2]; 3 ppm,+
same,"CPE, H5N1 avian influenza virus treated with compound",[2]; 10 ppm,+
same,"CPE, H5N1 avian influenza virus treated with compound",[2]; 30 ppm,+
same,"CPE, H5N1 avian influenza virus treated with compound",[2]; 100 ppm,−
same,"CPE, H5N1 avian influenza virus treated with compound",[2]; 300 ppm,−
same,"CPE, H5N1 avian influenza virus treated with compound","[2]; 1,000 ppm",CTX
same,"CPE, H5N1 avian influenza virus treated with compound","[2]; 3,000 ppm",CTX
same,"concentration protecting RBC cells to sustain no agglutination (HA testing, H5N1)",[3],"above 1,000 ppm"
same,"HA, H5N1 avian influenza virus treated with compound",[3]; 3 ppm,+
same,"HA, H5N1 avian influenza virus treated with compound",[3]; 10 ppm,+
same,"HA, H5N1 avian influenza virus treated with compound",[3]; 30 ppm,+
same,"HA, H5N1 avian influenza virus treated with compound",[3]; 100 ppm,−
same,"HA, H5N1 avian influenza virus treated with compound",[3]; 300 ppm,−
same,"HA, H5N1 avian influenza virus treated with compound","[3]; 1,000 ppm",CTX
same,"HA, H5N1 avian influenza virus treated with compound","[3]; 3,000 ppm",CTX
same,concentration protecting cells against H5N2 influenza virus infection,[4],"above 1,000 ppm"
same,"CPE, H5N2 avian influenza virus treated with compound",[4]; 3 ppm,+
same,"CPE, H5N2 avian influenza virus treated with compound",[4]; 10 ppm,+
same,"CPE, H5N2 avian influenza virus treated with compound",[4]; 30 ppm,+
same,"CPE, H5N2 avian influenza virus treated with compound",[4]; 100 ppm,−
same,"CPE, H5N2 avian influenza virus treated with compound",[4]; 300 ppm,−
same,"CPE, H5N2 avian influenza virus treated with compound","[4]; 1,000 ppm",CTX
same,"CPE, H5N2 avian influenza virus treated with compound","[4]; 3,000 ppm",CTX
same,"concentration protecting RBC cells to sustain no agglutination (HA testing, H5N2)",[5],"above 1,000 ppm"
same,"HA, H5N2 avian influenza virus treated with compound",[5]; 3 ppm,+
same,"HA, H5N2 avian influenza virus treated with compound",[5]; 10 ppm,+
same,"HA, H5N2 avian influenza virus treated with compound",[5]; 30 ppm,+
same,"HA, H5N2 avian influenza virus treated with compound",[5]; 100 ppm,−
same,"HA, H5N2 avian influenza virus treated with compound",[5]; 300 ppm,−
same,"HA, H5N2 avian influenza virus treated with compound","[5]; 1,000 ppm",CTX
same,"HA, H5N2 avian influenza virus treated with compound","[5]; 3,000 ppm",CTX
same,viral morphology by AFM,[6],broken down and flattened
same,calculated RMS height of treated particles,[6]; 100 ppm,14.29±0.87 nm
same,calculated RMS height of treated particles,"[6]; 1,000 ppm",5.62±0.53 nm
same,viral morphology by AFM,"[7]; 30 and 1,000 ppm, FIGS. 5B and 5C",broken down and flattened
same,maximum height of virus particles (AFM cursor profile),"[7]; 30 ppm, FIG. 5B′",~10.35 nm
same,calculated RMS height of treated particles,[7]; 30 ppm,10.49±0.52 nm
same,maximum height of virus particles (AFM cursor profile),"[7]; 1,000 ppm, FIG. 5C′",~8.41 nm
same,calculated RMS height of treated particles,"[7]; 1,000 ppm",8.35±0.63 nm
same,MIC,"[8]; Staphylococcus aureus, ATCC25923, broth dilution method, read-out: final concentration suppressing proliferation of S. aureus (MIC)",20 µg/mL
same,MIC of S. aureus,[8]; final concentration 5 ppm,+
same,MIC of S. aureus,[8]; final concentration 10 ppm,+
same,MIC of S. aureus,[8]; final concentration 20 ppm,−
same,MIC of S. aureus,[8]; final concentration 50 ppm,−
same,MIC of S. aureus,[8]; final concentration 100 ppm,−
same,MIC of S. aureus,[8]; final concentration 200 ppm,−
same,"CPE, compound only",[9]; 3 ppm,−
same,"CPE, compound only",[9]; 10 ppm,−
same,"CPE, compound only",[9]; 30 ppm,−
same,"CPE, compound only",[9]; 100 ppm,−
same,"CPE, compound only",[9]; 300 ppm,−
same,"CPE, compound only","[9]; 1,000 ppm",CTX
same,"CPE, compound only","[9]; 3,000 ppm",CTX
same,"CPE, compound only",[10]; 3 ppm,−
same,"CPE, compound only",[10]; 10 ppm,−
same,"CPE, compound only",[10]; 30 ppm,−
same,"CPE, compound only",[10]; 100 ppm,−
same,"CPE, compound only",[10]; 300 ppm,−
same,"CPE, compound only","[10]; 1,000 ppm",CTX
same,"CPE, compound only","[10]; 3,000 ppm",CTX
same,concentration at which cytotoxicity occurred,[10]; dog,"exceeding 1,000 ppm"
same,concentration causing no cytotoxicity,[10]; dog,less than 300 ppm
same,"CPE, compound only",[11]; 3 ppm,−
same,"CPE, compound only",[11]; 10 ppm,−
same,"CPE, compound only",[11]; 30 ppm,−
same,"CPE, compound only",[11]; 100 ppm,−
same,"CPE, compound only",[11]; 300 ppm,−
same,"CPE, compound only","[11]; 1,000 ppm",CTX
same,"CPE, compound only","[11]; 3,000 ppm",CTX
same,"CPE, compound only",[12]; 3 ppm,−
same,"CPE, compound only",[12]; 10 ppm,−
same,"CPE, compound only",[12]; 30 ppm,−
same,"CPE, compound only",[12]; 100 ppm,−
same,"CPE, compound only",[12]; 300 ppm,−
same,"CPE, compound only","[12]; 1,000 ppm",CTX
same,"CPE, compound only","[12]; 3,000 ppm",CTX
